ChEMBL document CHEMBL1201862, “PubChem BioAssay data set” (2004)
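Five compound concentrations were applied to cells in 96-well plates for 48 hours; endpoints were derived by simple linear interpolation of the resulting dose-response curve. Abbreviation: GI50, concentration required for 50% inhibition of growth.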 Calls of active or inactive are those of the source. Cut-off read from the data, not from the text of the source: active = GI50 up to about 1.1 µM and inactive = higher.

Tests used:
Assay in all cases: DTP human tumour cell line panel, 48 h
[1] = system: U-251
[2] = system: KM12
[3] = system: HCT-15
[4] = system: MDA-MB-435
[5] = system: IGROV-1
[6] = system: PC-3
[7] = system: A498
[8] = system: HOP-62
[9] = system: SN12C
[10] = system: MOLT-4
[11] = system: UACC-62
[12] = system: RPMI-8226
[13] = system: TK-10
[14] = system: OVCAR-5
[15] = system: CCRF-CEM
[16] = system: HOP-92
[17] = system: HCC 2998
[18] = system: MCF7
[19] = system: Malme-3M
[20] = system: CAKI-1
[21] = system: MDA-MB-231
[22] = system: NCI-H460
[23] = system: SF-539
[24] = system: ACHN
[25] = system: T47D
[26] = system: SK-MEL-2
[27] = system: SK-MEL-5
[28] = system: SF-295
[29] = system: SR
[30] = system: NCI/ADR-RES
[31] = system: DU-145
[32] = system: SNB-19
[33] = system: OVCAR-8
[34] = system: SW-620
[35] = system: HT-29
[36] = system: A549
[37] = system: UO-31
[38] = system: EKVX
[39] = system: HCT-116
[40] = system: NCI-H226
[41] = system: COLO 205
[42] = system: K562
[43] = system: UACC-257
[44] = system: 786-0
[45] = system: OVCAR-3
[46] = system: SK-OV-3
[47] = system: OVCAR-4
[48] = system: NCI-H522
[49] = system: NCI-H23
[50] = system: M14
[51] = system: BT-549
[52] = system: Hs-578T
[53] = system: SK-MEL-28
[54] = system: SF-268
[55] = system: LOX IMVI
[56] = system: RXF 393
[57] = system: HL-60
[58] = system: SNB-75

`CSC1SCC2C(=O)N(C)C3(CC3C)C(=O)OCC(NC(=O)c3nc4ccccc4cc3O)C(=O)NC(C)C(=O)N(C)C1C(=O)N(C)C1(CC1C)C(=O)OCC(NC(=O)c1nc3ccccc3cc1O)C(=O)NC(C)C(=O)N2C` (stereo unspecified) was tested, and the GI50 [1] was < 0.1 nM (active), the GI50 [2] was < 0.1 nM (active) and the GI50 [3] was 14.6 nM. For the same compound, the GI50 [4] was < 0.1 nM (active), the GI50 [5] was < 0.1 nM (active) and the GI50 [6] was < 0.1 nM (active). For the same compound, the GI50 [7] was < 0.1 nM (active), the GI50 [8] was < 0.1 nM (active) and the GI50 [9] was < 0.1 nM (active). For the same compound, the GI50 [10] was < 0.1 nM (active), the GI50 [11] was < 0.1 nM (active) and the GI50 [12] was < 0.1 nM (active). For the same compound, the GI50 [13] was < 0.1 nM (active), the GI50 [14] was < 0.1 nM (active) and the GI50 [15] was < 0.1 nM (active). For the same compound, the GI50 [16] was < 0.1 nM (active), the GI50 [17] was < 0.1 nM (active) and the GI50 [18] was < 0.1 nM (active). The GI50 [19] was < 0.1 nM (active), the GI50 [20] was 0.871 nM (active) and the GI50 [21] was < 0.1 nM (active). The GI50 [22] was < 0.1 nM (active), the GI50 [23] was < 0.1 nM (active) and the GI50 [24] was < 0.1 nM (active). The GI50 [25] was < 0.1 nM (active), the GI50 [26] was < 0.1 nM (active) and the GI50 [27] was < 0.1 nM (active). The GI50 [28] was < 0.1 nM (active), the GI50 [29] was < 0.1 nM (active) and the GI50 [30] was 176 nM (active). For the same compound, the GI50 [31] was < 0.1 nM (active), the GI50 [32] was < 0.1 nM (active) and the GI50 [33] was < 0.1 nM (active). The GI50 [34] was < 0.1 nM (active), the GI50 [35] was < 0.1 nM (active) and the GI50 [36] was < 0.1 nM (active). For the same compound, the GI50 [37] was 0.449 nM (active), the GI50 [38] was 100 nM (active) and the GI50 [39] was < 0.1 nM (active). The GI50 [40] was < 0.1 nM (active), the GI50 [41] was < 0.1 nM (active) and the GI50 [42] was < 0.1 nM (active). For the same compound, the GI50 [43] was 100 nM (active), the GI50 [44] was < 0.1 nM (active) and the GI50 [45] was < 0.1 nM (active). For the same compound, the GI50 [46] was < 0.1 nM (active), the GI50 [47] was < 0.1 nM (active) and the GI50 [48] was < 10 nM (active). For the same compound, the GI50 [49] was < 0.1 nM (active), the GI50 [50] was < 0.1 nM (active) and the GI50 [51] was < 10 nM (active). The GI50 [52] was < 0.1 nM (active), the GI50 [53] was < 0.1 nM (active) and the GI50 [54] was < 0.1 nM (active). For the same compound, the GI50 [55] was < 0.1 nM (active), the GI50 [56] was < 0.1 nM (active) and the GI50 [57] was < 0.1 nM (active). The GI50 [58] was < 0.1 nM (active).

For `NC(=S)N/N=C/C1NCCC2CCCCC21` (stereo unspecified), the GI50 [1] was 136 nM (active), the GI50 [2] was 416 nM (active) and the GI50 [3] was 89.5 nM. For the same compound, the GI50 [4] was 414 nM (active), the GI50 [5] was 689 nM (active) and the GI50 [6] was 363 nM (active). For the same compound, the GI50 [7] was 170 nM (active), the GI50 [8] was 93.8 nM (active) and the GI50 [9] was 167 nM (active). The GI50 [10] was 257 nM (active), the GI50 [11] was 45.2 nM (active) and the GI50 [12] was 279 nM (active). The GI50 [13] was 330 nM (active), the GI50 [14] was 796 nM (active) and the GI50 [15] was 310 nM (active). For the same compound, the GI50 [16] was 64.1 nM (active), the GI50 [17] was 108 nM (active) and the GI50 [18] was 590 nM (active). For the same compound, the GI50 [19] was 254 nM (active), the GI50 [20] was 71.5 nM (active) and the GI50 [21] was 1120 nM (active). The GI50 [22] was 231 nM (active), the GI50 [23] was 27.2 nM (active) and the GI50 [24] was 13.4 nM (active). The GI50 [25] was 282 nM (active), the GI50 [26] was 824 nM (active) and the GI50 [27] was 118 nM (active). The GI50 [28] was 67.3 nM (active), the GI50 [29] was 137 nM (active) and the GI50 [30] was 254 nM (active). The GI50 [31] was 173 nM (active), the GI50 [32] was 350 nM (active) and the GI50 [33] was 149 nM (active). The GI50 [34] was 568 nM (active), the GI50 [35] was 2860 nM (inactive) and the GI50 [36] was 262 nM (active). For the same compound, the GI50 [37] was 340 nM (active), the GI50 [38] was 611 nM (active) and the GI50 [39] was 281 nM (active). For the same compound, the GI50 [40] was 314 nM (active), the GI50 [41] was 373 nM (active) and the GI50 [42] was 617 nM (active). The GI50 [43] was 601 nM (active), the GI50 [44] was 138 nM (active) and the GI50 [45] was 312 nM (active). For the same compound, the GI50 [46] was 370 nM (active), the GI50 [47] was 1730 nM (inactive) and the GI50 [48] was 318 nM (active). The GI50 [49] was 133 nM (active), the GI50 [50] was 170 nM (active) and the GI50 [51] was 834 nM (active). The GI50 [52] was 1150 nM (inactive), the GI50 [53] was 2380 nM (inactive) and the GI50 [54] was 313 nM (active). For the same compound, the GI50 [55] was 221 nM (active), the GI50 [56] was 2430 nM (inactive) and the GI50 [57] was 291 nM (active). The GI50 [58] was 24200 nM (inactive).
